Tests used:
c-kit mutant D816V = target: T1, c-kit mutant D816V (Homo sapiens, UniProt P10721, D816V/DEL694-753); test: c-Kit mutant D816V biochemical assay, AlphaScreen; details: c-kit D816V biochemical inhibitory activity; read-out: Biochemical activity (IC50 μM) Kit D816V
T1 construct: residues 551-934, kinase insertion domain residues 694-753 deleted; 6x-histidine (N); made in house; host or cells: E. coli Arctic Express (DE3) RIL (Stratagene)
Procedure, shortened: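 Purified His-tagged c-Kit D816V (E. coli-expressed) assayed in 25 mM HEPES pH 7.2 with Mg/Mn, 5% DMSO and 10 μM ATP, 30 min at room temperature, 8-point 1:3 dilutions. Phosphorylation detected by AlphaScreen with streptavidin donor and PY20 acceptor beads; IC50 from signal versus concentration.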

c-kit kinase = target: T2, c-kit kinase (Homo sapiens, UniProt P10721); test: c-Kit biochemical assay, AlphaScreen, 10 μM ATP; details: c-kit biochemical inhibitory activity; read-out: Biochemical activity (IC50 μM) Kit
T2 construct: The c-kit (or kinase domain thereof) is an active kinase in AlphaScreen; poly-Histidine tag (in-house protein only) (cleaved yes); host or cells: E. coli BL21(DE3)RIL, co-expressed with PTP1B
Procedure, shortened: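 His-tagged c-Kit expressed in E. coli with co-expressed PTP1B (dephosphorylated), tag removed; 0.1 ng per reaction with biotinylated-peptide substrate in 50 mM HEPES pH 7.2, 5 mM MgCl2, 5 mM MnCl2, 5% DMSO, 10 μM ATP, 1 h at room temperature. Phosphorylation detected by AlphaScreen (streptavidin donor, PY20 acceptor beads); IC50 from 8-point 1:3 dilution series.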

T2 sequence (P10721 26-976): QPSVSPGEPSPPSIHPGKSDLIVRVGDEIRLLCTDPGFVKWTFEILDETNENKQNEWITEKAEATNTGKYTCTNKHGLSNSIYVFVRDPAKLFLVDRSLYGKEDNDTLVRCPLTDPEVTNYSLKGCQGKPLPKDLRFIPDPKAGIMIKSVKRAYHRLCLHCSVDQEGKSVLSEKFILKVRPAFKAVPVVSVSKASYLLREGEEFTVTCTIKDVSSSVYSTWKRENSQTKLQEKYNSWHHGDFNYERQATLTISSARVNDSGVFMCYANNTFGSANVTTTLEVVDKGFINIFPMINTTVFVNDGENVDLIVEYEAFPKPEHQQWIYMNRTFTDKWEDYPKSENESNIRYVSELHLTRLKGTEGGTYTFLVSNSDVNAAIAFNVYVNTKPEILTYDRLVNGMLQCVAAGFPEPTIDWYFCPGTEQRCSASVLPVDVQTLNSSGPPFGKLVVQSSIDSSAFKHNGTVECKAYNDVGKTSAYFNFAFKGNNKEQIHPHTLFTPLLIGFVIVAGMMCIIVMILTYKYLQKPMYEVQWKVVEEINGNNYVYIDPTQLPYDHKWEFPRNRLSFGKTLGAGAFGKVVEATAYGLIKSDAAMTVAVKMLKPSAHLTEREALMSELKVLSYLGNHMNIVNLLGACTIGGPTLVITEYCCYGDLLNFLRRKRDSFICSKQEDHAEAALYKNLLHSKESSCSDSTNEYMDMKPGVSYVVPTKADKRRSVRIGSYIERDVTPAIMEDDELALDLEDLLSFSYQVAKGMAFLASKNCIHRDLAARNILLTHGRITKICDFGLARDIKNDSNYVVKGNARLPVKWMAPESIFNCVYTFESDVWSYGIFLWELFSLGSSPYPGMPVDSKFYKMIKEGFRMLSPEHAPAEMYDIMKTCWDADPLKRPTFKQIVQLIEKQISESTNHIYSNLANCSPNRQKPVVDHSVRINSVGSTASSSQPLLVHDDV
T1 sequence (P10721 with tags, fused parts or gaps DEL694-753/D816V): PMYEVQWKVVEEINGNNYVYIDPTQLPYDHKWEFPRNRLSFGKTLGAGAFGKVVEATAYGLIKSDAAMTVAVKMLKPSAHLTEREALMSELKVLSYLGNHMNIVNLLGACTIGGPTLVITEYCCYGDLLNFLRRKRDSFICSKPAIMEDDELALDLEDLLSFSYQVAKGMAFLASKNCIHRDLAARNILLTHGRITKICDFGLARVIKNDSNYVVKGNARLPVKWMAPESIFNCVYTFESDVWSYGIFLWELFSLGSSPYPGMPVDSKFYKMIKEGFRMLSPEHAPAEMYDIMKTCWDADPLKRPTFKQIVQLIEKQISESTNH

| Compound | IC50 (c-kit mutant D816V) | IC50 (c-kit kinase) |
| --- | --- | --- |
| COc1ccc(S(=O)(=O)Nc2ccc(-c3ncnc4[nH]c(-c5ccc(F)cc5)cc34)cc2F)cc1 [P-0409, N-[2-fluoro-4-[6-(4-fluorophenyl)-7H-pyrrolo[2,3-d]pyrimidin-4-yl]phenyl]-4-methoxy-benzenesulfonamide] | 1 to 10 µM | 10 to 200 µM |
| CCCS(=O)(=O)Nc1ccc(-c2ncnc3[nH]c(C)cc23)cc1 [P-0289, N-[4-(6-methyl-7H-pyrrolo[2,3-d]pyrimidin-4-yl)phenyl]propane-1-sulfonamide] | 0.0001 to 1 µM | 10 to 200 µM |
| COCCOc1cc2ncnc(-c3ccc(NS(=O)(=O)c4ccc(Cl)cc4)cc3F)c2cc1OCCOC [P-0261, N-[4-[6,7-bis(2-methoxyethoxy)quinazolin-4-yl]-3-fluoro-phenyl]-4-chloro-benzenesulfonamide] | 0.0001 to 1 µM | 0.0001 to 1 µM |
| NS(=O)(=O)c1ccc(-c2ncnc3[nH]c(-c4ccc(F)cc4)cc23)cc1 [P-0418, 4-[6-(4-fluorophenyl)-7H-pyrrolo[2,3-d]pyrimidin-4-yl]benzenesulfonamide] | 0.0001 to 1 µM | 1 to 10 µM |
| Cc1cc2c(-c3ccc(NS(=O)(=O)c4ccc(Cl)cc4)c(F)c3)ncnc2[nH]1 [P-0344, 4-chloro-N-[2-fluoro-4-(6-methyl-7H-pyrrolo[2,3-d]pyrimidin-4-yl)phenyl]benzenesulfonamide] | 1 to 10 µM | 1 to 10 µM |
| CCc1ccc(S(=O)(=O)NC2CCN(c3ncnc4[nH]ccc34)CC2)cc1 [P-0525, 4-ethyl-N-[1-(7H-pyrrolo[2,3-d]pyrimidin-4-yl)-4-piperidyl]benzenesulfonamide] | 10 to 200 µM | 10 to 200 µM |
| COc1cccc([C@@H](C)NC(=O)N2CCN(c3ncnc4cc(-c5cn(C)nc5C)sc34)C[C@H]2C)c1 [P-0608, (2R)-4-[6-(1,3-dimethylpyrazol-4-yl)thieno[3,2-d]pyrimidin-4-yl]-N-[(1R)-1-(3-methoxyphenyl)ethyl]-2-methyl-piperazine-1-carboxamide] | 0.0001 to 1 µM | 10 to 200 µM |
| C[C@H](NC(=O)N1CCN(c2ncnc3[nH]c(-c4ccc(F)cc4)cc23)C[C@H]1C)c1ccc(F)cc1 [P-0030, (2R)-N-[(1S)-1-(4-fluorophenyl)ethyl]-4-[6-(4-fluorophenyl)-7H-pyrrolo[2,3-d]pyrimidin-4-yl]-2-methyl-piperazine-1-carboxamide] | 0.0001 to 1 µM | 10 to 200 µM |
| COc1cccc([C@H](C)NC(=O)N2CCN(c3ncnc4cc(-c5ccc(F)cc5)sc34)CC2(C)C)c1 [P-0594, 4-[6-(4-fluorophenyl)thieno[3,2-d]pyrimidin-4-yl]-N-[(1S)-1-(3-methoxyphenyl)ethyl]-2,2-dimethyl-piperazine-1-carboxamide] | 0.0001 to 1 µM | 1 to 10 µM |
| Cc1cc2c(N3CCN(C(=O)N[C@@H](C)c4ccc(F)cc4)C(C)(C)C3)ncnc2[nH]1 [P-0644, N-[(1S)-1-(4-fluorophenyl)ethyl]-2,2-dimethyl-4-(6-methyl-7H-pyrrolo[2,3-d]pyrimidin-4-yl)piperazine-1-carboxamide] | 1 to 10 µM | 10 to 200 µM |
| Cc1ccc(S(=O)(=O)Nc2ccc(-c3ncnc4[nH]c(C)cc34)cc2)cn1 [P-0301, 6-methyl-N-[4-(6-methyl-7H-pyrrolo[2,3-d]pyrimidin-4-yl)phenyl]pyridine-3-sulfonamide] | 0.0001 to 1 µM | 1 to 10 µM |
| O=C(Nc1ccccc1Cl)N1CCN(c2ncnc3[nH]c(-c4ccccc4)cc23)CC1 [P-0237, N-(2-chlorophenyl)-4-(6-phenyl-7H-pyrrolo[2,3-d]pyrimidin-4-yl)piperazine-1-carboxamide] | 1 to 10 µM | 0.0001 to 1 µM |
| C[C@H](NC(=O)N1CCN(c2ncnc3[nH]c(-c4ccc(Cl)cc4)cc23)CC1)c1ccc(Cl)cc1 [P-0188, N-[(1S)-1-(4-chlorophenyl)ethyl]-4-[6-(4-chlorophenyl)-7H-pyrrolo[2,3-d]pyrimidin-4-yl]piperazine-1-carboxamide] | 0.0001 to 1 µM | 1 to 10 µM |
| Cc1nc(-c2cccc(NC(=O)NC3CCN(c4ncnc5[nH]ccc45)CC3)c2)no1 [P-0507, 1-[3-(5-methyl-1,2,4-oxadiazol-3-yl)phenyl]-3-[1-(7H-pyrrolo[2,3-d]pyrimidin-4-yl)-4-piperidyl]urea] | 10 to 200 µM | 10 to 200 µM |
| COc1cc(-c2cc3c(N4CCN(C(=O)N[C@@H](C)c5ccc(F)cc5)C(C)(C)C4)ncnc3[nH]2)ccn1 [P-0643] | 0.0001 to 1 µM | 1 to 10 µM |
| O=C(NCc1ccc(Cl)cc1)N1CCN(c2ncnc3[nH]ccc23)CC1 [P-0170, N-[(4-chlorophenyl)methyl]-4-(7H-pyrrolo[2,3-d]pyrimidin-4-yl)piperazine-1-carboxamide] | 10 to 200 µM | 1 to 10 µM |

| Compound | IC50 (c-kit mutant D816V) | IC50 (c-kit kinase) |
| --- | --- | --- |
| C[C@@H]1CN(c2ncnc3[nH]c(-c4ccncc4)cc23)CCN1C(=O)NCc1ccc(F)cc1 [P-0061, (2R)-N-[(4-fluorophenyl)methyl]-2-methyl-4-[6-(4-pyridyl)-7H-pyrrolo[2,3-d]pyrimidin-4-yl]piperazine-1-carboxamide] | 0.0001 to 1 µM | 1 to 10 µM |
| O=S(=O)(Nc1ccc(-c2ncnc3[nH]c(-c4ccc(F)cc4)cc23)c(F)c1)c1ccc(Cl)cc1 [P-0396, 4-chloro-N-[3-fluoro-4-[6-(4-fluorophenyl)-7H-pyrrolo[2,3-d]pyrimidin-4-yl]phenyl]benzenesulfonamide] | 0.0001 to 1 µM | 10 to 200 µM |
| Cc1cc2c(-c3ccc(NS(=O)(=O)c4cc(Cl)cs4)cc3)ncnc2[nH]1 [P-0304, 4-chloro-N-[4-(6-methyl-7H-pyrrolo[2,3-d]pyrimidin-4-yl)phenyl]thiophene-2-sulfonamide] | 1 to 10 µM | 0.0001 to 1 µM |
| Cc1cc2c(-c3ccc(S(=O)(=O)Nc4ccc(F)cc4)cc3F)ncnc2[nH]1 [P-0336, 3-fluoro-N-(4-fluorophenyl)-4-(6-methyl-7H-pyrrolo[2,3-d]pyrimidin-4-yl)benzenesulfonamide] | 1 to 10 µM | 10 to 200 µM |
| C[C@H](NC(=O)N1CCN(c2ncnc3cc(N4CCOCC4)sc23)CC1)c1ccc(F)cc1 [P-0589, N-[(1S)-1-(4-fluorophenyl)ethyl]-4-(6-morpholinothieno[3,2-d]pyrimidin-4-yl)piperazine-1-carboxamide] | 0.0001 to 1 µM | 10 to 200 µM |
| Cc1cc2c(-c3ccc(NS(=O)(=O)c4cccc(F)c4)cc3F)ncnc2[nH]1 [P-0358, 3-fluoro-N-[3-fluoro-4-(6-methyl-7H-pyrrolo[2,3-d]pyrimidin-4-yl)phenyl]benzenesulfonamide] | 1 to 10 µM | 1 to 10 µM |
| CCS(=O)(=O)Nc1cccc(-c2ncnc3[nH]c(-c4ccc(F)cc4)cc23)c1 [P-0407, N-[3-[6-(4-fluorophenyl)-7H-pyrrolo[2,3-d]pyrimidin-4-yl]phenyl]ethanesulfonamide] | 1 to 10 µM | 1 to 10 µM |
| Cc1cc2c(-c3ccc(NS(=O)(=O)c4ccc5c(c4)CCO5)cc3)ncnc2[nH]1 [P-0307, N-[4-(6-methyl-7H-pyrrolo[2,3-d]pyrimidin-4-yl)phenyl]-2,3-dihydrobenzofuran-5-sulfonamide] | 1 to 10 µM | 10 to 200 µM |
| Cc1cc2c(-c3ccc(NS(=O)(=O)c4ccc(Cl)cc4F)cc3F)ncnc2[nH]1 [P-0352, 4-chloro-2-fluoro-N-[3-fluoro-4-(6-methyl-7H-pyrrolo[2,3-d]pyrimidin-4-yl)phenyl]benzenesulfonamide] | 1 to 10 µM | 0.0001 to 1 µM |
| COc1cccc([C@H](C)NC(=O)N2CC=C(c3ncnc4cc(-c5ccc(F)cc5)sc34)CC2)c1 [P-0581, 4-[6-(4-fluorophenyl)thieno[3,2-d]pyrimidin-4-yl]-N-[(1S)-1-(3-methoxyphenyl)ethyl]-3,6-dihydro-2H-pyridine-1-carboxamide] | 0.0001 to 1 µM | 1 to 10 µM |
| Cc1nn(C)cc1-c1cc2ncnc(N3CCN(C(=O)NCc4ccc(F)cc4)[C@H](C)C3)c2s1 [P-0610, (2R)-4-[6-(1,3-dimethylpyrazol-4-yl)thieno[3,2-d]pyrimidin-4-yl]-N-[(4-fluorophenyl)methyl]-2-methyl-piperazine-1-carboxamide] | 0.0001 to 1 µM | 1 to 10 µM |
| Cc1ccc(S(=O)(=O)NC2CCN(c3ncnc4[nH]c(-c5cnn(C)c5)cc34)CC2C)cc1 (centres unmarked) [P-0672, 4-methyl-N-[3-methyl-1-[6-(1-methylpyrazol-4-yl)-7H-pyrrolo[2,3-d]pyrimidin-4-yl]-4-piperidyl]benzenesulfonamide] | 0.0001 to 1 µM | 0.0001 to 1 µM |
| COc1cc2c(-c3ccc(NS(=O)(=O)C4CC4)cc3F)ncnc2cc1OCCCN1CCCCC1 [P-0257, N-[3-fluoro-4-[6-methoxy-7-[3-(1-piperidyl)propoxy]quinazolin-4-yl]phenyl]cyclopropanesulfonamide] | 0.0001 to 1 µM | 1 to 10 µM |
| COc1cc2ncnc(-c3ccc(NS(C)(=O)=O)cc3F)c2cc1OCCCN1CCOCC1 [P-0252, N-[3-fluoro-4-[7-methoxy-6-(3-morpholinopropoxy)quinazolin-4-yl]phenyl]methanesulfonamide] | 0.0001 to 1 µM | 10 to 200 µM |
| CS(=O)(=O)Nc1cccc(-c2ncnc3[nH]c(-c4ccc(F)cc4)cc23)c1 [P-0414, N-[3-[6-(4-fluorophenyl)-7H-pyrrolo[2,3-d]pyrimidin-4-yl]phenyl]methanesulfonamide] | 1 to 10 µM | 1 to 10 µM |
